The results in this text go back to PMC6941823, “A dispensable paralog of succinate dehydrogenase subunit C mediates standing resistance towards a subclass of SDHI fungicides in Zymoseptoria tritici” (PLoS Pathogens, 2019).

SMILES strings stand for the structures.

The test concerns the target C_A84I-SQR (SDHC_A84I), IPO323_Flu21 mitochondria (Zymoseptoria tritici, UniProt F9X9V6+F9XH52+O42772, A84I). The test can be described thus: Succinate-quinone (SQR) SDHI sensitivity assay on purified mitochondria, IPO323_Flu21. The conditions noted are these: mitochondria of UV mutant IPO323_Flu21; mean of three ± SD. It is filed as biochemical. How it is done:
Succinate-ubiquinone oxidoreductase (SQR) inhibition assays were performed on mitochondrial extracts from a panel of strains that were (i) either carrying a unique C-subunit encoding gene (ZtSDHC1, ZtSDHC1_A84I or Zt-SDHC3), or (ii) carrying two C-subunit encoding genes ZtSDHC1 and ZtSDHC3 (Table 1).
Biomass production, mitochondrial extraction and purification were performed as described in [14]. Succinate: ubiquinone/DCPIP sensitivity tests were performed as described in [14] with minor modification. The different mitochondrial suspensions were adjusted to similar initial velocity (1 OD595nm hour^-1) and inhibitor concentrations ranged between 0.047nM and 50μM with uniform 4x dilution steps (11 concentrations + DMSO control). Calculated absorbance slopes (OD/min) were used for IC50 calculations using GraphPad Prism 6.07 software non-linear curve fitting against log inhibitor concentrations.
The IC50 is the concentration at which inhibition is half-maximal. A low value points to inhibition by little substance. In turn, `O=C(Nc1ccccc1-c1ccc(Cl)cc1)c1cccnc1Cl` [Boscalid] came in with an IC50 of 0.062 ± 0.0192 µM. Turning to `CC1=C(C(=O)Nc2ccccc2)SCCO1` [Carboxin], the IC50 is 1.15 ± 0.153 µM. Compared with the last compound, the IC50 is about 19-fold higher. In turn, `Cn1cc(C(=O)NCCc2ccc(Cl)cc2Cl)c(C(F)F)n1` [Compound 1] displayed an IC50 of 2.57 ± 0.239 µM. As to `C[C@@H](Cc1ccc(Cl)cc1Cl)NC(=O)c1cn(C)nc1C(F)F` [Compound 2], half-maximal inhibition (IC50) required 0.78 ± 0.157 µM.

Consider `CON(C(=O)c1cn(C)nc1C(F)F)[C@@H](C)Cc1ccc(Cl)cc1Cl` [Compound 3], for which the IC50 amounted to 0.028 ± 0.0073 µM. As to `O=C(NCCc1ncc(C(F)(F)F)cc1Cl)c1ccccc1C(F)(F)F` [Fluopyram], the IC50 was found to be 1.44 ± 0.354 µM. For `Cc1cc(OC(C)C)ccc1C(=O)C(C)(C)NC(=O)c1sccc1C` [Isofetamid], the IC50 was determined as 21.4 ± 4.55 µM. This IC50 lies about 15-fold higher than the previous one. Consider `CC(C)CC(C)c1sccc1NC(=O)c1cn(C)nc1C(F)(F)F` (stereo not drawn) [Penthiopyrad], for which the IC50 is 0.0046 ± 0.0017 µM. For the compound `CON(C(=O)c1cn(C)nc1C(F)F)[C@@H](C)Cc1c(Cl)cc(Cl)cc1Cl` [Pydiflumetofen], the IC50 was found to be 0.002 ± 0.0004 µM.
